The source of these data is US8486979B2, “1,2,4 oxadiazole compounds and methods of use thereof” (AbbVie Inc., priority 2006, dated 2013).

For data set [1], the target named is T1, human α3β4 nicotinic acetylcholine receptor (Homo sapiens, UniProt P30926+P32297).
T1 construct: expressed in transfected cells
Briefly: Calcium flux (FLIPR) assay, HEK-293 cells expressing human α3β4 nAChR. As to conditions: for calcium response of partial agonist co-applied with PAM: co-applied with PAM Compound 1, α3β4 nAChRs. Format: cell-based. The method, then:
Experimental Procedure: Human embryonic kidney (HEK) 293 cells stably expressing human α4β2 or α3β4 combinations are grown to confluency in 162 cm^2 tissue culture flasks in DMEM media supplemented with 10% FBS and 25 μg/ml zeocin and 200 μg/ml hygromycin B. IMR-32 neuroblastoma cells (ATCC) are grown to confluency in 162 cm^2 tissue culture flasks in minimum essential media supplemented with 10% FBS and 1 mM sodium pyruvate, 1% non-essential amino acids and 1% antibiotic-antimycotic. The cells are then dissociated using cell dissociation buffer and 100-150 μl per well of 3.5×10^5 cells/ml cell suspension (˜50,000-100,000 cells/well) was plated into 96-well black plates (poly-D-lysine precoated) with clear bottom and maintained for 24-48 hours in a tissue culture incubator at 37° C. under an atmosphere of 5% CO2: 95% air. Other clonal cell lines or primary cell cultures that express endogenous α4* nicotinic receptors may also be used in this assay. Calcium flux was measured using calcium-3 assay kit (Molecular Devices, Sunnyvale, Calif.) or fluo-4 (Invitrogen). […] The cells were loaded with 100 μl of the dye per well and incubated at room temperature for up to one hour for HEK 293 clonal stable cell lines or 30 minutes-45 minutes at 37° C. for IMR-32 cells Fluorescence measurements were read simultaneously from all the wells by a Fluorometic Imaging Plate Reader (FLIPR) at an excitation wavelength of 480 nm and an emission wavelength of 520 nm. Baseline fluorescence was measured for the first 6 seconds at which 3× concentrations of modulator/test compounds were added to the cell plate at 50 μl and incubated for five minutes. The fluorescence intensity was captured every second for the first 1 minute followed by every 5 seconds for an additional 4 minutes. This procedure was followed by 50 μl of 4× concentration of agonist and readings were taken for a period of 3-5 minutes as described above. […] The concentration dependence of changes fluorescence responses was fitted by nonlinear regression analysis (GraphPad Prism, San Diego, Calif.) to obtain EC50 values. […]

Data set [2] concerns the target T2, human α4β2 nicotinic acetylcholine receptor (Homo sapiens, UniProt P17787+P43681).
T2 construct: expressed in transfected cells
Briefly: Calcium flux (FLIPR) assay, HEK-293 cells expressing human α4β2 nAChR. To be noted: for calcium response of partial agonist alone: without PAM; for calcium response of partial agonist co-applied with PAM: co-applied with PAM Compound 1, α4β2 nAChRs. In kind it is cell-based. How it is done: Experimental Procedure: Human embryonic kidney (HEK) 293 cells stably expressing human α4β2 or α3β4 combinations are grown to confluency in 162 cm^2 tissue culture flasks in DMEM media supplemented with 10% FBS and 25 μg/ml zeocin and 200 μg/ml hygromycin B. IMR-32 neuroblastoma cells (ATCC) are grown to confluency in 162 cm^2 tissue culture flasks in minimum essential media supplemented with 10% FBS and 1 mM sodium pyruvate, 1% non-essential amino acids and 1% antibiotic-antimycotic. The cells are then dissociated using cell dissociation buffer and 100-150 μl per well of 3.5×10^5 cells/ml cell suspension (˜50,000-100,000 cells/well) was plated into 96-well black plates (poly-D-lysine precoated) with clear bottom and maintained for 24-48 hours in a tissue culture incubator at 37° C. under an atmosphere of 5% CO2: 95% air. Other clonal cell lines or primary cell cultures that express endogenous α4* nicotinic receptors may also be used in this assay. Calcium flux was measured using calcium-3 assay kit (Molecular Devices, Sunnyvale, Calif.) or fluo-4 (Invitrogen). A stock solution of the dye was prepared by dissolving each vial supplied by the vendor in Hank's balanced salt solution buffer (HBSS) or 150 mM NMDG, 20 mM CaCl2 containing 10 mM HEPES, The stock solution was diluted 1:20 using the same buffer before use. The growth media was removed from the cells. The cells were loaded with 100 μl of the dye per well and incubated at room temperature for up to one hour for HEK 293 clonal stable cell lines or 30 minutes-45 minutes at 37° C. for IMR-32 cells Fluorescence measurements were read simultaneously from all the wells by a Fluorometic Imaging Plate Reader (FLIPR) at an excitation wavelength of 480 nm and an emission wavelength of 520 nm. Baseline fluorescence was measured for the first 6 seconds at which 3× concentrations of modulator/test compounds were added to the cell plate at 50 μl and incubated for five minutes. The fluorescence intensity was captured every second for the first 1 minute followed by every 5 seconds for an additional 4 minutes. This procedure was followed by 50 μl of 4× concentration of agonist and readings were taken for a period of 3-5 minutes as described above. Data was normalized to maximal responses and plotted as a function of concentration. The concentration dependence of changes fluorescence responses was fitted by nonlinear regression analysis (GraphPad Prism, San Diego, Calif.) to obtain EC50 values.
The positive allosteric modulator effects on α4β2 nAChRs exemplified by 3-(3-pyridin-3-yl-1,2,4-oxadiazol-5-yl)benzonitrile (Compound 1) and 3,5-di(pyridin-3-yl)-1,2,4-oxadiazole (Compound 2) can be identified by measuring their potentiating effect to fluorescence changes in intracellular calcium using a fluorimetric plate reader. The potentiating effect of an α4β2 modulator on α4β2 receptor can also be illustrated by concentration responses to α4β2 agonists, for example 5-[(2R)-azetidin-2-ylmethoxy]-2-chloropyridine (Compound A) and (3R)-1-pyridin-3-ylpyrrolidin-3-amine (Compound B), in presence of a fixed concentration of PAM. […] In addition to compound A and B, other known nicotinic agonists can be left-shifted in presence of α4β2 PAM such as […]. […] This could lead to preferential effects of the agonist at the desired subtype, viz., α4β2, without effects at other nicotinic receptor subtypes and thus enhancing in vivo selectivity of the agonist.
The activity (allosteric effects—potentiation of fluorescence responses) ranges are defined as follows; “a” denotes as activity range from 200-400%, “b” denotes an activity range from 150-200%, “c” denotes an activity range from 120-150% and “d” denotes an activity range 90-120%. […]

For data set [3], the system named is nerve injury induced mechanical allodynia. Briefly: Chung model of neuropathic pain (L5-L6 spinal nerve ligation, tactile allodynia, von Frey). In kind it is in vivo. To be noted: rat; for mechanical paw withdrawal threshold (PWT): i.p. The method, then: Animals: Male Sprague-Dawley rats (Charles River, Wilmington, Mass.) weighing 120-150 grams at time of surgery were utilized. These animals were group housed in AAALAC approved facilities at Abbott Laboratories in a temperature-regulated environment with lights on between 0700 and 2000 hours. Food and water was available ad libitum except during testing. All animal handling and experimental protocols were approved by an institutional animal care and use committee (IACUC). All experiments were performed during the light cycle.
Chemicals: 5-[(2R)-Azetidin-2-ylmethoxy]-2-chloropyridine (Compound A, 1-100 nmol/kg) and 3-(3-pyridin-3-yl)-1,2,4-oxadiazol-5-yl)benzonitrile (α4β2 PAM Compound 1, 1-35 μmol/kg, i.p.) was used. Compound A and D was prepared in saline and injected in solution in a volume of 2 ml/kg body weight 30 minutes before behavioral evaluation. Compound 1,3-(3-(pyridin-3-yl)-1,2,4-oxadiazol-5-yl)benzonitrile, was prepared in 30% hydroxybetacyclodextrin and injected in solution in a volume of 4 ml/kg body weight immediately before Compound A. For studies with Compound D, the doses tested ranged from 0.3-30 μmol/kg i.p.
Experimental Procedure: To produce neuropathic pain, tight ligation of the L5-L6 spinal nerves was performed. As previously described in detail by Kim and Chung (Kim S H and Chung J M (1992), Pain 50: 355), following sterilization procedures, a 1.5 cm incision was made dorsal to the lumbosacral plexus. The paraspinal muscles (left side) were separated from the spinous processes, the L5 and L6 spinal nerves isolated, and tightly ligated with 3-0 silk thread. Following hemostasis, the wound was sutured and coated with antibiotic ointment. The rats were allowed to recover and then placed in a cage with soft bedding for 7-14 days before behavioral testing for mechanical allodynia.
Tactile allodynia was measured using calibrated (force; g) von Frey filaments (Stoelting, Wood Dale, Ill.). Briefly, rats were placed into individual plexiglass containers and allowed to acclimate for 15-20 minutes before testing. Withdrawal threshold was determined by increasing and decreasing stimulus intensity and estimated using a Dixon non-parametric test (Chaplan et al., 1994; Chaplan S R, Bach F W, Pogrel J W, Chung J M and Yaksh T L (1994) J Neurosci Methods 53:55-63). Only rats with threshold scores ≦4.5 g were considered allodynic and utilized in further testing. A percent of maximal possible effect (% M.P.E.) of the tested compounds was calculated according to the formula: ([post-drug threshold]−[baseline threshold])/([maximum threshold]−[baseline threshold])×100%, where maximum threshold was equal to 15 g.
Statistical analysis: Analysis of the in vivo data was carried out using analysis of variance. Where appropriate, Bonferroni's Multiple Comparison Test was used for post-hoc analysis. The level of significance was set at p less than 0.05. Data are presented as mean ±S.E.M.

Data set [4] deals with emesis. Briefly: Emesis in ferrets. In kind it is in vivo. As to conditions: ferret. How it is done: Fasted male ferrets (Marshall BioResources, North Rose, N.Y.) weighing between 1.0 and 1.7 kg are used to determine the emetic effects. α4β2 PAM (Compound 1) was administered first and thirty minutes later, Compound A was administered at various doses. […] The percentage of animals that experienced emesis at a given dose was recorded.

Data set [5] concerns the target T3, α4β2 nAChR modulator site (Homo sapiens, UniProt P17787+P43681).
T3 construct: membrane enriched fractions from human cortex (ABS Inc., Wilmington, Del.); tissue ABS Inc., Wilmington, Del; host or cells: human cortex (frontal cortex) membrane enriched fractions
The data set can be described thus: [3H]-POB binding, membrane enriched fractions from human cortex. To be noted: saturation binding, human frontal cortex membranes, 4° C. How it is done: [^3H]-POB ([^3H]-3-(5-(pyridin-3-yl)-1,2,4-oxadiazol-3-yl)benzonitrile) binding to a α4β2 nAChR modulator site was determined using membrane enriched fractions from human cortex (ABS Inc., Wilmington, Del.). Pellets were thawed at 4° C., washed and resuspended with a Polytron at a setting of 7 in 30 volumes of BSS-Tris buffer (120 mM NaCl, 5 mM KCl, 2 mM CaCl2, 2 mM MgCl2, and 50 mM Tris-Cl, pH 7.4, 4° C.). For saturation binding isotherms, eight concentrations of [^3H]-POB (10-250 nM) in quadruplicate and homogenate containing 100-200 μg of protein were incubated in a final volume of 500 μL for 75 minutes at 4° C. Non-specific binding was determined in the presence of 30 μM unlabeled 3-(5-(pyridin-3-yl)-1,2,4-oxadiazol-3-yl)benzonitrile. Under these conditions, saturable binding of [^3H]-POB binding was measured in membrane enriched fractions from human frontal cortex (FIG. 10). […]
For use in concentration-inhibition assays, seven log-dilution concentrations of test compounds containing 100-200 μg of protein, and 50 nM [^3H]-POB (16.4 Ci/mmol) were incubated in a final volume of 500 μL for 75 minutes at 4° C. in duplicate. Non-specific binding was determined in the presence of 30 μM 3-(5-(pyridin-3-yl)-1,2,4-oxadiazol-3-yl)benzonitrile. […] IC50 values were determined by nonlinear regression in Microsoft® Excel or Assay Explorer. […]

Setting [6] is: Compound 1 3.5 μmol/kg with various doses of Compound A.

T1 sequence (P32297 32-505): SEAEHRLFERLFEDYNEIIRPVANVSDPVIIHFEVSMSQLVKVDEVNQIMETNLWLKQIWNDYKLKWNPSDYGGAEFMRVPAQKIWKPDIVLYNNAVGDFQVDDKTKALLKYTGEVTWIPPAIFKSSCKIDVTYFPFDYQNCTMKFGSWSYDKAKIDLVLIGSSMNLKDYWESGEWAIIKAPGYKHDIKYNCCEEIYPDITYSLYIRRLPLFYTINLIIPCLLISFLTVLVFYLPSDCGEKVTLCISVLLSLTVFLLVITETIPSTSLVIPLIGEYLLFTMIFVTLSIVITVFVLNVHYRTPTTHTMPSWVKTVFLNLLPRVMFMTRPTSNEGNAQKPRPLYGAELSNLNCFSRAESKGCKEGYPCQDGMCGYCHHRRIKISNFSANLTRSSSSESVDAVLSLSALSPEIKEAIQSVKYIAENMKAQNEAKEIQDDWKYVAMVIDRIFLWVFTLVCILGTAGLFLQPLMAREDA
T1 sequence (P30926 22-498): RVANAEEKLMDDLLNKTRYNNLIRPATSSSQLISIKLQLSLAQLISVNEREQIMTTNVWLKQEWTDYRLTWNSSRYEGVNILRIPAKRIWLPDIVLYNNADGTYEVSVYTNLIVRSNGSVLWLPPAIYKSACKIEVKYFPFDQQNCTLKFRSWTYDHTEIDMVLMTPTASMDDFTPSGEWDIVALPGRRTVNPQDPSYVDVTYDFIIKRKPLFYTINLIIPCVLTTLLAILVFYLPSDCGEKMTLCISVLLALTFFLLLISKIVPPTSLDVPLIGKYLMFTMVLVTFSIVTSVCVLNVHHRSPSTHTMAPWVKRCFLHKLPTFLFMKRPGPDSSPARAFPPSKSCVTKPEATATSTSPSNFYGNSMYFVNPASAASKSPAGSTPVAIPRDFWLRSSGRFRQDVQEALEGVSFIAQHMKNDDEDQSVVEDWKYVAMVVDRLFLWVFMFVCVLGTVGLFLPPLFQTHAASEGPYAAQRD
T2 sequence (P43681 29-627 limits assumed): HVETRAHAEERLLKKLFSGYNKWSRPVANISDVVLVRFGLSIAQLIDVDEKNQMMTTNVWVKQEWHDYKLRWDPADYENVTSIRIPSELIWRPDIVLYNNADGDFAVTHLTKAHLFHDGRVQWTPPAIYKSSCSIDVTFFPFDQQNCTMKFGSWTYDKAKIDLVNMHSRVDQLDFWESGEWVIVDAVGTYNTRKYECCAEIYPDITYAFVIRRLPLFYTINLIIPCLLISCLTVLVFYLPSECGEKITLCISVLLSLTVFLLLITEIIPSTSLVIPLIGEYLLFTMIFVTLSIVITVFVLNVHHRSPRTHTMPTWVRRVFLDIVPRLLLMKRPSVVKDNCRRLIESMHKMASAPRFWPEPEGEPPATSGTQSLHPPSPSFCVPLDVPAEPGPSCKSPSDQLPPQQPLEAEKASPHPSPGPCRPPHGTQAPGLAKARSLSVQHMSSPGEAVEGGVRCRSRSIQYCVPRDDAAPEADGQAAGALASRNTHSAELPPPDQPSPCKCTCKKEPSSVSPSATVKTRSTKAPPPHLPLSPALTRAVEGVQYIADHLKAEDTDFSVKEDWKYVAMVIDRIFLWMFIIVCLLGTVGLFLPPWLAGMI
T2 sequence (P17787 26-502): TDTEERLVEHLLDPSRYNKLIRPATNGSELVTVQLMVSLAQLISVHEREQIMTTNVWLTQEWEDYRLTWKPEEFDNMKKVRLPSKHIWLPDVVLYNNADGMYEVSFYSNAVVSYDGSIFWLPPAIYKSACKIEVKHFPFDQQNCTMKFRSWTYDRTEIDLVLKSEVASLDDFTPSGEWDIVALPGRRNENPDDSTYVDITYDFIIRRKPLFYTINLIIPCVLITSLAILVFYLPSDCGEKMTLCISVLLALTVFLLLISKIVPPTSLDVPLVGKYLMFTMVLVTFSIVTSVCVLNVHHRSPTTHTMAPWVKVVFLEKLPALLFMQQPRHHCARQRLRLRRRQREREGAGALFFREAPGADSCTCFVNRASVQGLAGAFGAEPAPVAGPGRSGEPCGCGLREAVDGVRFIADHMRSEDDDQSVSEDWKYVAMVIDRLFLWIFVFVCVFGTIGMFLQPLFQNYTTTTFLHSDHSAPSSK
T3 sequence (P43681 29-627 limits assumed): as the sequence (P43681 29-627 limits assumed) above
T3 sequence (P17787 26-502): as the sequence (P17787 26-502) above

On to `Cc1ncccc1OC[C@@H]1CCCN1` [Compound C, 2-methyl-3-(2-(S)-pyrrolidinylmethoxy)pyridine, reference compound], for which, in data set [1], the “calcium response of partial agonist co-applied with PAM” value (shortened to “calcium response … with PAM”) is reported as “not at α3β4 nAChRs”. For the same compound, in data set [2], the “calcium response of partial agonist alone” value is on record as “does not evoke a calcium response” and the “calcium response … with PAM” value was “evoked robust responses”.

Regarding `Clc1ccc(OC[C@H]2CCN2)cn1` [Compound A, 5-[(2R)-azetidin-2-ylmethoxy]-2-chloropyridine], the “efficacy in neuropathic pain” value in data set [3] (1 nmol/kg, alone) was “ineffective”; in data set [3] (Compound A 1 nmol/kg combined with varying doses of PAM Compound 1), “dose-dependent increase in efficacy”. The “mechanical paw withdrawal threshold (PWT)” value in data set [3] (0.03 μmol/kg, alone) came to 5.6 ± 0.3 g.

Take `N#Cc1cccc(-c2nc(-c3cccnc3)no2)c1` [Example 1, 3-(3-(pyridin-3-yl)-1,2,4-oxadiazol-5-yl)benzonitrile]: in data set [1] (cells expressing α3β4, agonists Compound A and Compound B), the “effect of PAM on concentration responses to the agonists” value is reported as “unable to affect the concentration responses to the agonists”. In addition, the “Activity (allosteric effects—potentiation of fluorescence responses)” value in data set [2] (α4β2 positive allosteric modulation, calcium fluorescence (FLIPR)) is listed as “a (“a” denotes as activity range from 200-400%)”. Also, in data set [4] (setting [6]), the “shift of emesis dose response curve of Compound A” value is listed as “does not shift the dose response curve of Compound A”. In data set [4] (alone), the emesis result is reported as “does not cause emesis”. For the same compound, the “mechanical paw withdrawal threshold (PWT)” value in data set [3] (10 mg/kg, alone) was found to be 3.3 ± 0.4 g. Also, the “shift of neuropathic pain dose response curve of Compound A” value in data set [3] (setting [6]) is listed as “left-shifting the dose response curve of Compound A”. Besides, in data set [3] (alone), the “efficacy in neuropathic pain, administered alone” value is “ineffective”.

As for `[3H]c1cncc(-c2nc(-c3cccc(C#N)c3)no2)c1` [Example 135, [^3H]-3-(5-(pyridin-3-yl)-1,2,4-oxadiazol-3-yl)benzonitrile], in data set [5], the Bmax amounted to 2900±500 fmol/mg protein and binding was characterised by a dissociation constant (Kd) of 60 ± 16 nM.

In the case of `c1ccc2ncc(N3C[C@@H]4CN[C@@H]4C3)cc2c1` [Compound D, (1S,5S)-3-(3,6-diaza-bicyclo[3.2.0]hept-3-yl)-quinoline], the “calcium response … with PAM” value in data set [1] was “not at α3β4 nAChRs”; in data set [2], “evoked robust responses”. Further, the “calcium response of partial agonist alone” value in data set [2] is “does not evoke a response”. The “efficacy in neuropathic pain, administered alone” value in data set [3] (alone) is “ineffective in reversing neuropathic pain”. The “efficacy in neuropathic pain, co-dosed with α4β2 PAM” value in data set [3] (co-dosed with Compound 1) is listed as “significant relief of neuropathic pain”.
